Test results taken from patent US12084420B2, “Indoline compounds for inhibiting KIF18A” (Volastra Therapeutics, Inc., priority 2021, dated 2024).
Like-named read-outs stand apart in the source and are kept apart here.

Target: hKIF18A (1-374) (Homo sapiens (Human), UniProt Q8NI77)
Assay: Inhibition of KIF18A microtubule-dependent ATPase activity (ADP-Glo)
[1] = KIF18A microtubule-dependent ATPase activity, biochemical assay

Chain of hKIF18A (1-374) (Q8NI77 whole entry, looked up): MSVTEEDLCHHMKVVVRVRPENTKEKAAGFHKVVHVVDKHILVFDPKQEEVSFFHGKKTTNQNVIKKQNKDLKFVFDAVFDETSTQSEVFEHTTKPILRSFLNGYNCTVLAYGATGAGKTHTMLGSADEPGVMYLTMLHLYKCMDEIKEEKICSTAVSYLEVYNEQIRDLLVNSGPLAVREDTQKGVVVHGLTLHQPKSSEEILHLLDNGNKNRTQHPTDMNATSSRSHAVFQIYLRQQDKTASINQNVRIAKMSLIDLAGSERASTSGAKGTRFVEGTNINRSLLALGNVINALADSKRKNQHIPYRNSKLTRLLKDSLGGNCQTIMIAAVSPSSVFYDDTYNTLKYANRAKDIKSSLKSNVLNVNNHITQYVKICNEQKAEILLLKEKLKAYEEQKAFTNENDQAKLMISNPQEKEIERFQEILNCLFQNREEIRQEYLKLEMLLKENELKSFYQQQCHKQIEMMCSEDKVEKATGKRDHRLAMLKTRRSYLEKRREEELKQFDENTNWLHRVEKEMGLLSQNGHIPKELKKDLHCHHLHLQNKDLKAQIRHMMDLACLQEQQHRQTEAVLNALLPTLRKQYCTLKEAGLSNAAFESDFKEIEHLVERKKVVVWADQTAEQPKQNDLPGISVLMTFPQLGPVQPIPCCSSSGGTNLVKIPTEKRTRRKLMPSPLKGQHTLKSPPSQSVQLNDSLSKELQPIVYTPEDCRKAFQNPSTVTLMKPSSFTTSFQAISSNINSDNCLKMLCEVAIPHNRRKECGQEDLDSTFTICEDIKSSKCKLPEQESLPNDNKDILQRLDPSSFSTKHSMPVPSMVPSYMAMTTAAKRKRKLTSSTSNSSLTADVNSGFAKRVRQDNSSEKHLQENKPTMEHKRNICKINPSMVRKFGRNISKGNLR
Chain of hKIF18A (1-374) (Q2XVP4 whole entry partner, looked up): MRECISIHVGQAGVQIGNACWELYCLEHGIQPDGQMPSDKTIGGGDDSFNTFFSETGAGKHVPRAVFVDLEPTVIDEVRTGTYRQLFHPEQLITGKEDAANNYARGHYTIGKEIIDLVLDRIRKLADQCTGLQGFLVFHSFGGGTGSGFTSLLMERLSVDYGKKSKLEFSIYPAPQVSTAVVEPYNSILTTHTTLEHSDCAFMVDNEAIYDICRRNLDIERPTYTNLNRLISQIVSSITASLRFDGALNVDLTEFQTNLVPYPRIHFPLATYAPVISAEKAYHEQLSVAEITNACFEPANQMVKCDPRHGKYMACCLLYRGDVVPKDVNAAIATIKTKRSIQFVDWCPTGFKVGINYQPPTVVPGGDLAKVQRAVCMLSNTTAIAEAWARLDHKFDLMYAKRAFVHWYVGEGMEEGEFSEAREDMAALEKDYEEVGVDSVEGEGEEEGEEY
Chain of hKIF18A (1-374) (P02554 whole entry partner, looked up): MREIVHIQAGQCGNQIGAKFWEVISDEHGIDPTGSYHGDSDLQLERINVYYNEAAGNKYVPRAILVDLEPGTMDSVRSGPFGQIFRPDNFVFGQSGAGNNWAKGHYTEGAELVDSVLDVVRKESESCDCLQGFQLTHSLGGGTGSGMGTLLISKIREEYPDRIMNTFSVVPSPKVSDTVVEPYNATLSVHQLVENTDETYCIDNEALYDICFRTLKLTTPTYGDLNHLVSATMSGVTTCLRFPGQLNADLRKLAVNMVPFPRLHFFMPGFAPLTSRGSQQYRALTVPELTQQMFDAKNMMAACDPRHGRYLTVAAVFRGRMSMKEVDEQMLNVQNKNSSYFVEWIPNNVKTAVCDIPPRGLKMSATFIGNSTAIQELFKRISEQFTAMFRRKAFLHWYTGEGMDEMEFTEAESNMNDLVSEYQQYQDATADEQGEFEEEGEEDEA

| Compound | IC50 [1] | IC50 |
| --- | --- | --- |
| CS(=O)(=O)Nc1ccc2c(c1)C1(CCC3(CC3)CC1)CN2C(=O)c1cccc(S(=N)(=O)C2CCCC2)c1 (single isomer, unassigned) [Compound 287a] | 34 nM |  |
| CS(=O)(=O)Nc1ccc2c(c1)C1(CCC3(CC3)CC1)CN2C(=O)c1cccc([C@@H](O)C2CCC2)c1 (single isomer, unassigned) [Compound 313a] | 19 nM |  |
| CS(=O)(=O)Nc1ccc2c(c1)C1(CCC3(CC3)CC1)CN2C(=O)c1cccc([C@H](O)C2CCC2)c1 (single isomer, unassigned) [Compound 313b] | 15 nM |  |
| CS(=O)(=O)Nc1ccc2c(c1)C1(CCC3(CC3)CC1)CN2C(=O)c1ccnc([C@@H](O)C2CCCC2)c1 (single isomer, unassigned) [Compound 316a] | 21 nM |  |
| CS(=O)(=O)Nc1ccc2c(c1)C1(CCC3(CC3)CC1)CN2C(=O)c1ccnc([C@H](O)C2CCCC2)c1 (single isomer, unassigned) [Compound 316b] | 16 nM |  |
| CC(C)(C)NS(=O)(=O)c1cccc(C(=O)N2CC3(CCC4(CC4)CC3)c3cc(C(O)C(F)(F)F)ccc32)c1 (single isomer, unassigned) [Compound 338a] | 48 nM |  |
| CC(C)(C)NS(=O)(=O)c1cccc(C(=O)N2CC3(CCC4(CC4)CC3)c3cc(C(O)C(F)(F)F)ccc32)c1 (single isomer, unassigned) [Compound 338b] | 83 nM |  |
| C[C@@H](c1cccc(C(=O)N2CC3(CCC4(CC4)CC3)c3cc(NS(C)(=O)=O)ccc32)c1)N1CCC(F)(F)CC1 (single isomer, unassigned) [Compound 341a] | 30 nM |  |
| C[C@H](c1cccc(C(=O)N2CC3(CCC4(CC4)CC3)c3cc(NS(C)(=O)=O)ccc32)c1)N1CCC(F)(F)CC1 (single isomer, unassigned) [Compound 341b] | 24 nM |  |
| CCS(=O)(=O)Nc1ccc2c(c1)C1(CCC3(CC3)CC1)CN2C(=O)c1ccc(C(O)C2CCCC2)o1 (single isomer, unassigned) [Compound 367a] | 3.9 nM |  |
| CCS(=O)(=O)Nc1ccc2c(c1)C1(CCC3(CC3)CC1)CN2C(=O)c1ccc(C(O)C2CCCC2)o1 (single isomer, unassigned) [Compound 367b] | 4.8 nM |  |
| O=C(c1ccc(C(O)C2CCCC2)o1)N1CC2(CCC3(CC3)CC2)c2cc(NS(=O)(=O)CCO)ccc21 (single isomer, unassigned) [Compound 368a] | 3 nM |  |
| O=C(c1ccc(C(O)C2CCCC2)o1)N1CC2(CCC3(CC3)CC2)c2cc(NS(=O)(=O)CCO)ccc21 (single isomer, unassigned) [Compound 368b] | 3.5 nM |  |
| CC(C)(C)[C@@H](O)c1ccc(C(=O)N2CC3(CCC4(CC4)CC3)c3cc(NS(=O)(=O)CCO)ccc32)o1 (single isomer, unassigned) [Compound 371a] | 30 nM |  |
| CC(C)(C)[C@H](O)c1ccc(C(=O)N2CC3(CCC4(CC4)CC3)c3cc(NS(=O)(=O)CCO)ccc32)o1 (single isomer, unassigned) [Compound 371b] | 40 nM |  |
| CCS(=O)(=O)Nc1ccc2c(c1)C1(CCC3(CC3)CC1)CN2C(=O)c1ccc([C@H](O)C(C)(C)C)o1 (single isomer, unassigned) [Compound 372a] | 37 nM |  |
| CCS(=O)(=O)Nc1ccc2c(c1)C1(CCC3(CC3)CC1)CN2C(=O)c1ccc([C@@H](O)C(C)(C)C)o1 (single isomer, unassigned) [Compound 372b] | 35 nM |  |
| CC(C)(C)[C@@H](O)c1ccc(C(=O)N2CC3(CCC4(CC4)CC3)c3cc(NS(C)(=O)=O)ccc32)o1 (single isomer, unassigned) [Compound 373a] | 200 nM |  |
| CC(C)(C)[C@H](O)c1ccc(C(=O)N2CC3(CCC4(CC4)CC3)c3cc(NS(C)(=O)=O)ccc32)o1 (single isomer, unassigned) [Compound 373b] | 170 nM |  |
| C[C@@H]1CCN(S(=O)(=O)c2cccc(C(=O)N3CC4(CCC5(CC5)CC4)c4cc(NS(C)(=O)=O)ccc43)c2)C1 [(R)-Compound 249, (R)-N-(1″-(3-((3-methylpyrrolidin-1-yl)sulfonyl)benzoyl)dispiro[cyclopropane-1,1′-cyclohexane-4′,3″-indolin]-5″- yl)methanesulfonamide] |  | 11 nM |

| Compound | IC50 [1] | IC50 |
| --- | --- | --- |
| CS(=O)(=O)Nc1ccc2c(c1)C1(CCC3(CC3)CC1)CN2C(=O)c1cccc(S(=O)(=O)N2CC[C@H](F)C2)c1 [(S)-Compound 239, (S)-N-(1″-(3-((3-fluoropyrrolidin-1-yl)sulfonyl)benzoyl)dispiro[cyclopropane-1,1′-cyclohexane-4′,3″-indolin]-5″- yl)methanesulfonamide] | 15 nM |  |
| C[C@H]1CCN(S(=O)(=O)c2cccc(C(=O)N3CC4(CCC5(CC5)CC4)c4cc(NS(C)(=O)=O)ccc43)c2)C1 [(S)-Compound 249, (S)-N-(1″-(3-((3-methylpyrrolidin-1-yl)sulfonyl)benzoyl)dispiro[cyclopropane-1,1′-cyclohexane-4′,3″-indolin]-5″- yl)methanesulfonamide] |  | 16 nM |
| O=C(c1cccc(S(=O)(=O)N2CCC(F)(F)CC2)c1)N1CC2(CCCC2)c2c(F)cccc21 [Compound 1, (3-((4,4-difluoropiperidin-1-yl)sulfonyl)phenyl)(4′-fluorospiro[cyclopentane-1,3′-indolin]-1′-yl)methanone] | 1600 nM |  |
| O=C(c1cccc(S(=O)(=O)N2CCCCC2)c1)N1CC2(CCCC2)c2c(F)cccc21 [Compound 1′, (4′-fluorospiro[cyclopentane-1,3′-indolin]-1′-yl)(3-(piperidin-1-ylsulfonyl)phenyl)methanone] | 2600 nM |  |
| O=C(c1cccc(S(=O)(=O)N2CCC(F)(F)CC2)c1)N1CC2(CCCC2)c2ccccc21 [Compound 3, (3-((4,4-difluoropiperidin-1-yl)sulfonyl)phenyl)(spiro[cyclopentane-1,3′-indolin]-1′-yl)methanone] | 1600 nM |  |
| O=C(c1cccc(S(=O)(=O)N2CCCCC2)c1)N1CC2(CCC3(CC3)CC2)c2ccccc21 [Compound 6, dispiro[cyclopropane-1,1′-cyclohexane-4′,3″-indolin]-1″-yl(3-(piperidin-1-ylsulfonyl)phenyl)methanone] | 580 nM |  |
| O=C(c1cccc(S(=O)(=O)N2CCCC2)c1)N1CC2(CCC3(CC3)CC2)c2ccccc21 [Compound 8, dispiro[cyclopropane-1,1′-cyclohexane-4′,3″-indolin]-1″-yl(3-(pyrrolidin-1-ylsulfonyl)phenyl)methanone] | 940 nM |  |
| CC(C)(C)NS(=O)(=O)c1cccc(C(=O)N2CC3(CCC4(CC4)CC3)c3cc(Br)ccc32)c1 [Compound 9, 3-(5″-bromodispiro[cyclopropane-1,1′-cyclohexane-4′,3″-indoline]-1″- carbonyl)-N-(tert-butyl)benzenesulfonamide] | 1000 nM |  |
| CC1CCC2(CC1)CN(C(=O)c1cccc(S(=O)(=O)N3CCC(F)(F)CC3)c1)c1ccc(Br)cc12 (stereo not shown) [Compound 15, (5′-bromo-4-methylspiro[cyclohexane-1,3′-indolin]-1′-yl)(3-((4,4-difluoropiperidin-1-yl)sulfonyl)phenyl)methanone] | 780 nM | 740 nM |
| CC1CCC2(C1)CN(C(=O)c1cccc(S(=O)(=O)N3CCC(F)(F)CC3)c1)c1ccc(NS(C)(=O)=O)cc12 (stereo not shown) [Compound 23, N-(1′-(3-((4,4-difluoropiperidin-1-yl)sulfonyl)benzoyl)-3-methylspiro[cyclopentane-1,3′-indolin]-5′-yl)methanesulfonamide] | 23 nM |  |
| CS(=O)(=O)Nc1ccc2c(c1)C1(CCCCC1)CN2C(=O)c1cccc(S(=O)(=O)N2CC3CC3C2)c1 (stereo not shown) [Compound 25, N-(1′-(3-((3-azabicyclo[3.1.0]hexan-3-yl)sulfonyl)benzoyl)spiro[cyclohexane-1,3′-indolin]-5′-yl)methanesulfonamide] | 120 nM |  |
| CCC1=CCC2(CC1)CN(C(=O)c1cccc(S(=O)(=O)NC(C)(C)C)c1)c1ccc(NS(C)(=O)=O)cc12 (stereo not shown) [Compound 31, N-(tert-butyl)-3-(4-ethyl-5′-(methylsulfonamido)spiro[cyclohexane-1,3′-indolin]-3-en-1′-carbonyl)benzenesulfonamide] | 39 nM |  |
| CCN(c1ccc2c(c1)C1(CCC3(CC3)CC1)CN2C(=O)c1cccc(S(=O)(=O)N2CCC(F)(F)CC2)c1)S(C)(=O)=O [Compound 32, N-(1″-(3-((4,4-difluoropiperidin-1-yl)sulfonyl)benzoyl)dispiro[cyclopropane-1,1′-cyclohexane-4′,3″-indolin]-5″- yl)-N-ethylmethanesulfonamide] | 78 nM |  |
| CN(C)S(=O)(=O)c1cccc(C(=O)N2CC3(CCCCC3)c3cc(NS(C)(=O)=O)ccc32)c1 [Compound 42, N,N-dimethyl-3-(5′-(methylsulfonamido)spiro[cyclohexane-1,3′-indoline]-1′-carbonyl)benzenesulfonamide] | 1300 nM |  |
| CS(=O)(=O)Nc1ccc2c(c1)C1(CCCCC1)CN2C(=O)c1cccc(S(=O)(=O)N2CCC2)c1 [Compound 45, N-(1′-(3-(azetidin-1-ylsulfonyl)benzoyl)spiro[cyclohexane-1,3′-indolin]-5′-yl)methanesulfonamide] | 270 nM |  |
| CS(=O)(=O)Nc1ccc2c(c1)C1(CCCCC1)CN2C(=O)c1cccc(S(=O)(=O)NC2CC2)c1 [Compound 46, N-cyclopropyl-3-(5′-(methylsulfonamido)spiro[cyclohexane-1,3′-indoline]-1′-carbonyl)benzenesulfonamide] | 120 nM |  |
| CC(C)NS(=O)(=O)c1cccc(C(=O)N2CC3(CCCCC3)c3cc(NS(C)(=O)=O)ccc32)c1 [Compound 48, N-isopropyl-3-(5′-(methylsulfonamido)spiro[cyclohexane-1,3′-indoline]-1′-carbonyl)benzenesulfonamide] | 100 nM |  |
| CS(=O)(=O)Nc1ccc2c(c1)C1(CCCCC1)CN2C(=O)c1cccc(S(=N)(=O)C2CCCC2)c1 (stereo not shown) [Compound 49, N-(1′-(3-(cyclopentanesulfonamidoyl)benzoyl)spiro[cyclohexane-1,3′-indolin]-5′-yl)methanesulfonamide] | 130 nM |  |
| CS(=O)(=O)Nc1ccc2c(c1)C1(CCCCC1)CN2C(=O)c1cccc(S(=O)(=O)C2CCCC2)c1 [Compound 50, N-(1′-(3-(cyclopentylsulfonyl)benzoyl)spiro [cyclohexane-1,3′-indolin]-5′-yl)methanesulfonamide] | 72 nM |  |
